# Tested on: MDA-MB-468 spheroids with HUVEC/MSC, viability
# Experiment: Anticancer human tumor MDA-MB-468 cell line growth inhibition [PI3K];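 also: spheroids exposed to agents for seven days before readout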;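 as to viability, T/C: 100% = DMSO vehicle control viability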
# Details: for IC50: curve of first compound; for viability, T/C: stronger effect = lower value
# Outline: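 Spheroid viability read-out. Co-cultures contained the tumor line plus HUVEC and human MSCs. Each agent was paired with a PI3K inhibitor (inavolisib, alpelisib, duvelisib, copanlisib) across half-log dilutions starting at clinical Cmax, or at 10 microM when Cmax was unknown.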
smiles,measurement,setting,value
CC(=O)c1c(C)c2cnc(Nc3ccc(N4CCNCC4)cn3)nc2n(C2CCCC2)c1=O + COc1c(OCCCN2CCOCC2)ccc2c3n(c(=NC(=O)c4cnc(N)nc4)nc12)CCN3,IC50,second compound 0.00316 µM,> 100 nM
same,IC50,second compound 0.01 µM,> 100 nM
same,IC50,second compound 0.0316 µM,> 100 nM
same,IC50,second compound 0.1 µM,> 100 nM
same,IC50,second compound 0.316 µM,< 0.316 nM
same,IC50,second compound 1 µM,< 0.316 nM
same,"viability, T/C","second compound 0.00316 µM, first compound 0.000316 µM",105%
same,"viability, T/C","second compound 0.00316 µM, first compound 0.001 µM",92.6%
same,"viability, T/C","second compound 0.00316 µM, first compound 0.00316 µM",92.5%
same,"viability, T/C","second compound 0.00316 µM, first compound 0.01 µM",99.7%
same,"viability, T/C","second compound 0.00316 µM, first compound 0.0316 µM",90.1%
same,"viability, T/C","second compound 0.00316 µM, first compound 0.1 µM",91.5%
same,"viability, T/C","second compound 0.01 µM, first compound 0.000316 µM",85.7%
same,"viability, T/C","second compound 0.01 µM, first compound 0.001 µM",84%
same,"viability, T/C","second compound 0.01 µM, first compound 0.00316 µM",81.2%
same,"viability, T/C","second compound 0.01 µM, first compound 0.01 µM",86.2%
same,"viability, T/C","second compound 0.01 µM, first compound 0.0316 µM",86.8%
same,"viability, T/C","second compound 0.01 µM, first compound 0.1 µM",110%
same,"viability, T/C","second compound 0.0316 µM, first compound 0.000316 µM",64.1%
same,"viability, T/C","second compound 0.0316 µM, first compound 0.001 µM",67.5%
same,"viability, T/C","second compound 0.0316 µM, first compound 0.00316 µM",72.2%
same,"viability, T/C","second compound 0.0316 µM, first compound 0.01 µM",79.8%
same,"viability, T/C","second compound 0.0316 µM, first compound 0.0316 µM",83.2%
same,"viability, T/C","second compound 0.0316 µM, first compound 0.1 µM",86.4%
same,"viability, T/C","second compound 0.1 µM, first compound 0.000316 µM",59.5%
same,"viability, T/C","second compound 0.1 µM, first compound 0.001 µM",62.8%
same,"viability, T/C","second compound 0.1 µM, first compound 0.00316 µM",58.8%
same,"viability, T/C","second compound 0.1 µM, first compound 0.01 µM",61.5%
same,"viability, T/C","second compound 0.1 µM, first compound 0.0316 µM",64.1%
same,"viability, T/C","second compound 0.1 µM, first compound 0.1 µM",53.2%
same,"viability, T/C","second compound 0.316 µM, first compound 0.000316 µM",26.6%
same,"viability, T/C","second compound 0.316 µM, first compound 0.001 µM",25.5%
same,"viability, T/C","second compound 0.316 µM, first compound 0.00316 µM",27.1%
same,"viability, T/C","second compound 0.316 µM, first compound 0.01 µM",26.3%
same,"viability, T/C","second compound 0.316 µM, first compound 0.0316 µM",27.1%
same,"viability, T/C","second compound 0.316 µM, first compound 0.1 µM",27.9%
same,"viability, T/C","second compound 1 µM, first compound 0.000316 µM",3.5%
same,"viability, T/C","second compound 1 µM, first compound 0.001 µM",3.63%
same,"viability, T/C","second compound 1 µM, first compound 0.00316 µM",2.3%
same,"viability, T/C","second compound 1 µM, first compound 0.01 µM",3.4%
same,"viability, T/C","second compound 1 µM, first compound 0.0316 µM",2.94%
same,"viability, T/C","second compound 1 µM, first compound 0.1 µM",2.61%

# Source: PubChem BioAssay AID1963960 (Molecular Pharmacology Branch, DTP, NCI, 2024)
